Test results: ChEMBL document CHEMBL5360546, “Identification and characterisation of the tegument-expressed aldehyde dehydrogenase SmALDH_312 of Schistosoma mansoni, a target of disulfiram” (Eur J Med Chem, 2023)
Calls of active or inactive are those of the source. The rule behind the calls is not given here.

Legend:
Schistosoma mansoni [1] = experiment: Downregulation of Smaldh312 level in Schistosoma mansoni male at 10 uM measured after 72 hrs by qRT-PCR analysis; type: functional
Schistosoma mansoni [2] = experiment: Induction of morphological changes in male Schistosoma mansoni assessed as formation of blebs at 25 uM by confocal laser scanning microscopy analysis; type: functional, organism-based
Schistosoma mansoni [3] = experiment: Antischistosomal activity against Schistosoma mansoni couple assessed as couple separation at 1 uM measured after 24 to 72 hrs; type: functional, organism-based; conditions: time 24-72 hrs
Schistosoma mansoni [4] = experiment: Induction of morphological changes in Schistosoma mansoni couple assessed as tubercles rupture at 10 to 25 uM by confocal laser scanning microscopy analysis; type: functional, organism-based; conditions: dose 10-25 µM
Schistosoma mansoni [5] = experiment: Antischistosomal activity against Schistosoma mansoni couple assessed as couple separation at 25 uM measured at day 1 relative to control; type: functional; conditions: time 1 day
Schistosoma mansoni [6] = experiment: Antischistosomal activity against Schistosoma mansoni couple assessed as decrease in total number of eggs measured after 72 hrs; type: functional, organism-based; conditions: dose 1-200 µM
Schistosoma mansoni [7] = experiment: Induction of morphological changes in female Schistosoma mansoni assessed as formation of blebs at 25 uM by confocal laser scanning microscopy analysis; type: functional, organism-based
Schistosoma mansoni [8] = experiment: Induction of morphological changes in Schistosoma mansoni couple assessed as swelling of tegument at 10 to 25 uM by confocal laser scanning microscopy analysis; type: functional, organism-based; conditions: dose 10-25 µM
Schistosoma mansoni [9] = experiment: Downregulation of Smnanos1 transcript level in Schistosoma mansoni female at 10 to 25 uM measured after 72 hrs by qRT-PCR analysis; type: functional; conditions: dose 10-25 µM
Schistosoma mansoni [10] = experiment: Antischistosomal activity against Schistosoma mansoni couple assessed as decrease in couple attachment at 25 uM measured upto 3 days; type: functional, organism-based; conditions: time <= 3.0 day
Schistosoma mansoni [11] = experiment: Induction of morphological changes in male Schistosoma mansoni assessed as formation of ruptures at 25 uM by confocal laser scanning microscopy analysis; type: functional, organism-based
[12] = Inhibition of recombinant Schistosoma mansoni ALDH312 expressed in baculovirus Sf9 cells at 100 uM in presence of NADPH relative to control
Schistosoma mansoni [13] = experiment: Induction of morphological changes in Schistosoma mansoni couple assessed as loss of structural integrity in reproductive organs at 25 uM by scanning electron microscopy analysis; type: functional, organism-based
Schistosoma mansoni [14] = experiment: Induction of morphological changes in Schistosoma mansoni couple assessed as effect on gonads internal structure at 10 uM by confocal laser scanning microscopy analysis; type: functional, organism-based
Schistosoma mansoni [15] = experiment: Antischistosomal activity against Schistosoma mansoni larva assessed as lethality at 500 nM measured after 72 hrs by Trypan blue staining based analysis; type: functional, organism-based
Schistosoma mansoni [16] = experiment: Induction of morphological changes in female Schistosoma mansoni assessed as formation of ruptures at 25 uM by confocal laser scanning microscopy analysis; type: functional, organism-based
Schistosoma mansoni [17] = experiment: Induction of morphological changes in female Schistosoma mansoni assessed as degeneration of oocytes at 25 uM by scanning electron microscopy analysis; type: functional, organism-based
Schistosoma mansoni [18] = experiment: Downregulation of Smnanos1 transcript level in Schistosoma mansoni male at 10 to 25 uM measured after 72 hrs by qRT-PCR analysis; type: functional; conditions: dose 10-25 µM
Schistosoma mansoni [19] = experiment: Antischistosomal activity against Schistosoma mansoni couple assessed as couple separation at 100 uM measured at day 1 relative to control; type: functional; conditions: time 1 day
Schistosoma mansoni [20] = experiment: Antischistosomal activity against Schistosoma mansoni couple assessed as reduction in couple attachment at 10 uM measured at day 3 relative to control; type: functional; set-up: scale not given: the % may be the effect or the level left; conditions: time 3 day
Schistosoma mansoni [21] = experiment: Induction of morphological changes in Schistosoma mansoni couple assessed as effect on gonads tegument at 10 uM by confocal laser scanning microscopy analysis; type: functional, organism-based
Schistosoma mansoni [22] = experiment: Induction of morphological changes in male Schistosoma mansoni assessed as degeneration of spermatogonia at 25 uM by scanning electron microscopy analysis; type: functional, organism-based
Schistosoma mansoni [23] = experiment: Antischistosomal activity against Schistosoma mansoni couple assessed as reduction worm motility at 10 to 200 uM measured at day 3; type: functional, organism-based; conditions: dose 10-200 µM, time 3.0 day
Schistosoma mansoni [24] = experiment: Induction of morphological changes in Schistosoma mansoni couple assessed as detachment of tegument at 10 to 25 uM by confocal laser scanning microscopy analysis; type: functional, organism-based; conditions: dose 10-25 µM
Schistosoma mansoni [25] = experiment: Induction of morphological changes in Schistosoma mansoni couple assessed as formation of blebs at 10 to 25 uM by confocal laser scanning microscopy analysis; type: functional, organism-based; conditions: dose 10-25 µM
Schistosoma mansoni [26] = experiment: Upregulation of Smnanos2 transcript level in Schistosoma mansoni male at 10 uM measured after 72 hrs by qRT-PCR analysis; type: functional
Schistosoma mansoni [27] = experiment: Upregulation of Smnanos2 transcript level in Schistosoma mansoni female at 10 uM measured after 72 hrs by qRT-PCR analysis; type: functional
[28] = target: T1, Aldehyde dehydrogenase, mitochondrial (Homo sapiens) (UniProt P05091); experiment: Inhibition of human ALDH2 at 100 uM in presence of NADPH relative to control
T1 sequence (whole entry): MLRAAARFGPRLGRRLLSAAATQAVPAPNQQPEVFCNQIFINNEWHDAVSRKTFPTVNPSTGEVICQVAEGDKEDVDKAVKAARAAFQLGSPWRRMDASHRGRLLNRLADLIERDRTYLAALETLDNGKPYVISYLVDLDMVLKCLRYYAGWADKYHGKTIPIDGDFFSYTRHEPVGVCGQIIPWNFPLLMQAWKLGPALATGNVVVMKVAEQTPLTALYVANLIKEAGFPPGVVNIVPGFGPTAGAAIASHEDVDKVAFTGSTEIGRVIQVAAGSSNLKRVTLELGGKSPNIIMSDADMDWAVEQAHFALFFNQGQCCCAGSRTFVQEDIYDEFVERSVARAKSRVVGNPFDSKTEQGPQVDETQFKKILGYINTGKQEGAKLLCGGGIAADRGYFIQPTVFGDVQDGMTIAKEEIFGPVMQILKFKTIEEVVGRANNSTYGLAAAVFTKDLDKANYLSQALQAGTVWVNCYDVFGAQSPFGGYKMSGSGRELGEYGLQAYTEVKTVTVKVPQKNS

Schistosoma mansoni [29] = experiment: Inhibition of cell proliferation in Schistosoma mansoni couple assessed as reduction in EdU positive number measured after 3 days by Hoechst 33342 staining based analysis; type: functional; conditions: dose 10-25 µM, time 3.0 day
Schistosoma mansoni [30] = experiment: Antischistosomal activity against Schistosoma mansoni couple assessed as worm motility at 1 uM measured after 72 hrs; type: functional, organism-based
[31] = target: T1, Aldehyde dehydrogenase, mitochondrial (Homo sapiens); experiment: Inhibition of human ALDH2 at 100 uM in presence of NADPH
[32] = Inhibition of recombinant Schistosoma mansoni ALDH312 expressed in baculovirus Sf9 cells in presence of NADPH
[33] = Inhibition of recombinant Schistosoma mansoni ALDH312 expressed in baculovirus Sf9 cells at 50 uM in presence of NADPH relative to control

**Q.** With `CCN(CC)C(=S)SSC(=S)N(CC)CC` [DISULFIRAM] as the molecule, how does the Activity (Schistosoma mansoni [1]) read?
**A.** Active

**Q.** What about the Activity (Schistosoma mansoni [2]) of the same molecule?
**A.** Active

**Q.** And the Activity (Schistosoma mansoni [3])?
**A.** inactive

**Q.** What about the Activity (Schistosoma mansoni [4]) of the same molecule?
**A.** Active

**Q.** And the Activity (Schistosoma mansoni [5])?
**A.** 50%

**Q.** What about the Activity (Schistosoma mansoni [6]) of the same molecule?
**A.** Dose-Dependent Effect

**Q.** What about the Activity (Schistosoma mansoni [7]) of the same molecule?
**A.** Active

**Q.** What about the Activity (Schistosoma mansoni [8]) of the same molecule?
**A.** Active

**Q.** And the Activity (Schistosoma mansoni [9])?
**A.** Active

**Q.** What about the Activity (Schistosoma mansoni [10]) of the same molecule?
**A.** Active

**Q.** What about the Activity (Schistosoma mansoni [11]) of the same molecule?
**A.** Active

**Q.** And the inhibition [12]?
**A.** 41.2%

**Q.** What about the Activity (Schistosoma mansoni [13]) of the same molecule?
**A.** Active

**Q.** And the Activity (Schistosoma mansoni [14])?
**A.** inactive

**Q.** And the Activity (Schistosoma mansoni [15])?
**A.** Active

**Q.** What about the Activity (Schistosoma mansoni [16]) of the same molecule?
**A.** Active

**Q.** What about the Activity (Schistosoma mansoni [17]) of the same molecule?
**A.** Active

**Q.** And the Activity (Schistosoma mansoni [18])?
**A.** Active

**Q.** What about the Activity (Schistosoma mansoni [19]) of the same molecule?
**A.** 100%

**Q.** What about the Activity (Schistosoma mansoni [20]) of the same molecule?
**A.** 50%

**Q.** And the Activity (Schistosoma mansoni [21])?
**A.** inactive

**Q.** What about the Activity (Schistosoma mansoni [22]) of the same molecule?
**A.** Active

**Q.** And the Activity (Schistosoma mansoni [23])?
**A.** Active

**Q.** And the Activity (Schistosoma mansoni [24])?
**A.** Active

**Q.** And the Activity (Schistosoma mansoni [25])?
**A.** Active

**Q.** What about the Activity (Schistosoma mansoni [26]) of the same molecule?
**A.** Active

**Q.** And the Activity (Schistosoma mansoni [27])?
**A.** inactive

**Q.** What about the inhibition [28] of the same molecule?
**A.** 99%

**Q.** What about the inhibition (Schistosoma mansoni [29]) of the same molecule?
**A.** Dose-Dependent Effect

**Q.** What about the Activity (Schistosoma mansoni [30]) of the same molecule?
**A.** inactive

**Q.** Which results are given for `CC(C)=CCC/C(C)=C\CNCCNC1C2CC3CC(C2)CC1C3` (stereo not given)?
**A.** inhibition [12]: 100%; inhibition [31]: Active; IC50 [32]: 12.5 µM

**Q.** With `CN1CCC(NCc2cccc(-c3ccc(S(=O)(=O)NCc4ccccc4)cc3)c2)CC1` as the molecule, how does the inhibition [12] read?
**A.** 80.4%

**Q.** And the inhibition [31]?
**A.** inactive

**Q.** And the IC50 [32]?
**A.** 21.8 µM

**Q.** What does the source list for `O=C(Nc1ccc(C(F)(F)F)c(C(F)(F)F)c1)c1cc(Cl)ccc1O`?
**A.** inhibition [12]: 100%; inhibition [31]: inactive; IC50 [32]: 7.5 µM; inhibition [33]: 100%
